Data from patent US20240368135A1 (VERTEX PHARMACEUTICALS INCORPORATED, priority 2021, published 2024).
Where two headings read alike, the source gives them in different places.

Target: human NaV 1.8 (Homo sapiens, UniProt Q9Y5Y9)
Assay: E-VIPR assay detecting and measuring NaV inhibition properties
Type: cell-based
Details: HEK cells expressing truncated human NaV 1.8
Summary of the method: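 HEK cells expressing truncated, fully active human NaV1.8, with KIR2.1 BacMam co-transduction, were loaded with CC2-DMPE/DiSBAC6(3) voltage-sensing dyes for 20 min at room temperature. Compounds were tested in 11-point 3-fold dilutions (300 nM top final), optionally with 25% human serum, under electrical stimulation with FRET read-out.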

[1] = no human serum, read-out: IC50 in the E-VIPR Assay
[2] = in the presence of human serum (compound numbers followed by *), read-out: IC50 in the E-VIPR Assay, performed in the presence of human serum

Sequence of human NaV 1.8 (Q9Y5Y9 126-399 limits assumed): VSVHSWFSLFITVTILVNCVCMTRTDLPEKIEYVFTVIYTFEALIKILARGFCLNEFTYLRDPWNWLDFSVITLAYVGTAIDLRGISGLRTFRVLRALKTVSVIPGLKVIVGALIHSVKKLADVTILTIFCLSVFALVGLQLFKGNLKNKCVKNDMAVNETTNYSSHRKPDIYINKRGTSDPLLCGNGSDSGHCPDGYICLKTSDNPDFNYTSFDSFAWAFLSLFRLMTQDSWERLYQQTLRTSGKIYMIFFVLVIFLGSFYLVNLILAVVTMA
Sequence of human NaV 1.8 (Q9Y5Y9 660-890 limits assumed): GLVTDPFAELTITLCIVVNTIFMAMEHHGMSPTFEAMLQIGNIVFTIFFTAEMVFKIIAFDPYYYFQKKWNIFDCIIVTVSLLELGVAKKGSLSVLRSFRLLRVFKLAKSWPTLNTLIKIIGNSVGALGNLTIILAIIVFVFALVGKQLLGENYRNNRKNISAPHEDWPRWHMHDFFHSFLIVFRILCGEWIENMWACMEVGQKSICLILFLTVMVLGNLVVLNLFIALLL
Sequence of human NaV 1.8 (Q9Y5Y9 1148-1722 limits assumed): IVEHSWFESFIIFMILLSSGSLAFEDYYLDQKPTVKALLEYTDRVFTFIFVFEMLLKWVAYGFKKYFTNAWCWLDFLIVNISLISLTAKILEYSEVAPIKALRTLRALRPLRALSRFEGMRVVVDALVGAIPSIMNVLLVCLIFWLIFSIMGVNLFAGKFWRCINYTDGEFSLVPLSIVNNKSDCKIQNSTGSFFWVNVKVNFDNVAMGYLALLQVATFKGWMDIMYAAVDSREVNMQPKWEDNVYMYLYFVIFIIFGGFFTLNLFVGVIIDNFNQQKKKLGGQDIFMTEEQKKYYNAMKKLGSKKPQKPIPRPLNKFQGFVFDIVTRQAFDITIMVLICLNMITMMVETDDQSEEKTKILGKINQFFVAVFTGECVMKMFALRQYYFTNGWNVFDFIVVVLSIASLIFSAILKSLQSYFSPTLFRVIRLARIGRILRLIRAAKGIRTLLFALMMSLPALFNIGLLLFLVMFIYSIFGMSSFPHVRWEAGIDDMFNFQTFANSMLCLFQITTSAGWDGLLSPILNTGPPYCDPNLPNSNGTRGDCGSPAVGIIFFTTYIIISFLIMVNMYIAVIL

| Structure (SMILES) | IC50 [1] | IC50 [2] |
| --- | --- | --- |
| COc1c(C2C(C(=O)Nc3ccnc(C(O)CO)c3)OC(C)(C(F)(F)F)C2C)ccc(F)c1F (single isomer, unassigned) [Compound 44, 3-(3,4-difluoro-2-methoxy-phenyl)-N-[2-(1,2-dihydroxyethyl)-4-pyridyl]-4,5-dimethyl-5-(trifluoromethyl)tetrahydrofuran-2-carboxamide] | < 10 nM | – |
| COc1c(C2C(C(=O)Nc3ccnc(C(C)(C)O)c3)OC(C)(C(F)(F)F)C2C)ccc(F)c1F (single isomer, unassigned) [Compound 47, 3-(3,4-difluoro-2-methoxy-phenyl)-N-[2-(1-hydroxy-1-methyl-ethyl)-4-pyridyl]-4,5-dimethyl-5-(trifluoromethyl)tetrahydrofuran-2-carboxamide] | ≥ 1000 nM | – |
| COc1c(C2C(C(=O)Nc3ccnc(C(C)(C)O)c3)OC(C)(C(F)(F)F)C2C)ccc(F)c1F (single isomer, unassigned) [Compound 48, 3-(3,4-difluoro-2-methoxy-phenyl)-N-[2-(1-hydroxy-1-methyl-ethyl)-4-pyridyl]-4,5-dimethyl-5-(trifluoromethyl)tetrahydrofuran-2-carboxamide] | < 10 nM | – |
| COc1c(C2C(C(=O)Nc3ccnc(S(C)(=O)=O)c3)OC(C)(C(F)(F)F)C2C)ccc(F)c1F (single isomer, unassigned) [Compound 49, 3-(3,4-difluoro-2-methoxy-phenyl)-4,5-dimethyl-N-(2-methylsulfonyl-4-pyridyl)-5-(trifluoromethyl)tetrahydrofuran-2-carboxamide] | – | ≥ 1000 nM |
| CCS(=O)(=O)c1cc(NC(=O)C2OC(C)(C(F)(F)F)C(C)C2c2ccc(F)c(F)c2OC)ccn1 (single isomer, unassigned) [Compound 51, 3-(3,4-difluoro-2-methoxy-phenyl)-N-(2-ethylsulfonyl-4-pyridyl)-4,5-dimethyl-5-(trifluoromethyl)tetrahydrofuran-2-carboxamide] | < 10 nM | – |
| CCS(=O)(=O)c1cc(NC(=O)C2OC(C)(C(F)(F)F)C(C)C2c2ccc(F)c(F)c2OC)ccn1 (single isomer, unassigned) [Compound 52, 3-(3,4-difluoro-2-methoxy-phenyl)-N-(2-ethylsulfonyl-4-pyridyl)-4,5-dimethyl-5-(trifluoromethyl)tetrahydrofuran-2-carboxamide] | ≥ 1000 nM | – |
| COc1c(C2C(C(=O)Nc3ccnc(S(C)(=N)=O)c3)OC(C)(C(F)(F)F)C2C)ccc(F)c1F (single isomer, unassigned) [Compound 53, 3-(3,4-difluoro-2-methoxy-phenyl)-4,5-dimethyl-N-[2-(methylsulfonimidoyl)-4-pyridyl]-5-(trifluoromethyl)tetrahydrofuran-2-carboxamide] | 100 to 1000 nM | – |
| C[C@H]1[C@@H](c2ccc(F)c(F)c2OC(F)F)[C@H](C(=O)Nc2cccnc2)O[C@@]1(C)C(F)(F)F (single isomer, unassigned) [Compound 65] | – | 10 to 100 nM |
| C[C@@H]1[C@H](c2ccc(F)c(F)c2OC(F)F)[C@@H](C(=O)Nc2cccnc2)O[C@]1(C)C(F)(F)F (single isomer, unassigned) [Compound 66] | – | ≥ 1000 nM |
| C[C@H]1[C@@H](c2ccc(F)c(F)c2OC(F)F)[C@H](C(=O)Nc2ccc(=O)n(C)c2)O[C@@]1(C)C(F)(F)F (single isomer, unassigned) [Compound 68] | 10 to 100 nM | – |
| C[C@@H]1[C@H](c2ccc(F)c(F)c2OC(F)F)[C@@H](C(=O)Nc2cncc(C#N)c2)O[C@]1(C)C(F)(F)F (single isomer, unassigned) [Compound 69] | – | ≥ 1000 nM |
| C[C@H]1[C@@H](c2ccc(F)c(F)c2OC(F)F)[C@H](C(=O)Nc2cncc(C#N)c2)O[C@@]1(C)C(F)(F)F (single isomer, unassigned) [Compound 70] | – | 100 to 1000 nM |
| C[C@@H]1[C@H](c2ccc(F)c(F)c2OC(F)F)[C@@H](C(=O)Nc2cc(S(C)(=O)=O)ccn2)O[C@]1(C)C(F)(F)F (single isomer, unassigned) [Compound 71] | ≥ 1000 nM | – |
| Cc1nn(CCO)cc1NC(=O)[C@H]1O[C@](C)(C(F)(F)F)[C@H](C)[C@@H]1c1ccc(F)c(F)c1OC(F)F (single isomer, unassigned) [Compound 75] | ≥ 1000 nM | – |
| Cc1nn(CCO)cc1NC(=O)[C@@H]1O[C@@](C)(C(F)(F)F)[C@@H](C)[C@H]1c1ccc(F)c(F)c1OC(F)F (single isomer, unassigned) [Compound 76] | 10 to 100 nM | – |
| C[C@H]1[C@@H](c2ccc(F)c(F)c2OC(F)F)[C@H](C(=O)Nc2ccn(C)c(=O)c2)O[C@@]1(C)C(F)(F)F (single isomer, unassigned) [Compound 78] | < 10 nM | – |
| C[C@@H]1[C@H](c2ccc(F)c(F)c2OC(F)F)[C@@H](C(=O)Nc2ccnc(C(O)CO)c2)O[C@]1(C)C(F)(F)F (single isomer, unassigned) [Compound 81] | 100 to 1000 nM | – |
| C[C@@H]1[C@H](c2ccc(F)c(F)c2OC(F)F)[C@@H](C(=O)Nc2ccnc(C(C)(C)O)c2)O[C@]1(C)C(F)(F)F (single isomer, unassigned) [Compound 83] | – | ≥ 1000 nM |
| C[C@H]1[C@@H](c2ccc(F)c(F)c2OC(F)F)[C@H](C(=O)Nc2ccnc(C(C)(C)O)c2)O[C@@]1(C)C(F)(F)F (single isomer, unassigned) [Compound 84] | < 10 nM | – |
| C[C@H]1[C@@H](c2ccc(F)c(F)c2OC(F)F)[C@H](C(=O)Nc2ccnc(S(C)(=O)=O)c2)O[C@@]1(C)C(F)(F)F (single isomer, unassigned) [Compound 85] | < 10 nM | – |
| C[C@H]1[C@@H](c2ccc(F)c(F)c2OC(F)F)[C@H](C(=O)Nc2cc(S(C)(=O)=O)c[n+]([O-])c2)O[C@@]1(C)C(F)(F)F (single isomer, unassigned) [Compound 88] | – | 100 to 1000 nM |
| CCS(=O)(=O)c1cc(NC(=O)[C@H]2O[C@](C)(C(F)(F)F)[C@H](C)[C@@H]2c2ccc(F)c(F)c2OC(F)F)ccn1 (single isomer, unassigned) [Compound 89] | 100 to 1000 nM | – |

Further lines, results first:

| IC50 [1] | IC50 [2] | Structure (SMILES) |
| --- | --- | --- |
| ≥ 1000 nM | – | COc1c(C2C(C(=O)Nc3ccnc(C(O)CO)c3)OC(C)(C(F)(F)F)C2C)ccc(F)c1F (single isomer, unassigned) [Compound 43, 3-(3,4-difluoro-2-methoxy-phenyl)-N-[2-(1,2-dihydroxyethyl)-4-pyridyl]-4,5-dimethyl-5-(trifluoromethyl)tetrahydrofuran-2-carboxamide] |
| < 10 nM | – | COc1c(C2C(C(=O)Nc3ccnc(C(O)CO)c3)OC(C)(C(F)(F)F)C2C)ccc(F)c1F (single isomer, unassigned) [Compound 46, 3-(3,4-difluoro-2-methoxy-phenyl)-N-[2-(1,2-dihydroxyethyl)-4-pyridyl]-4,5-dimethyl-5-(trifluoromethyl)tetrahydrofuran-2-carboxamide] |
| < 10 nM | – | COc1c(C2C(C(=O)Nc3ccnc(S(C)(=O)=O)c3)OC(C)(C(F)(F)F)C2C)ccc(F)c1F (single isomer, unassigned) [Compound 50, 3-(3,4-difluoro-2-methoxy-phenyl)-4,5-dimethyl-N-(2-methylsulfonyl-4-pyridyl)-5-(trifluoromethyl)tetrahydrofuran-2-carboxamide] |
| < 10 nM | – | COc1c(C2C(C(=O)Nc3ccnc(S(C)(=N)=O)c3)OC(C)(C(F)(F)F)C2C)ccc(F)c1F (single isomer, unassigned) [Compound 54, 3-(3,4-difluoro-2-methoxy-phenyl)-4,5-dimethyl-N-[2-(methylsulfonimidoyl)-4-pyridyl]-5-(trifluoromethyl)tetrahydrofuran-2-carboxamide] |
| < 10 nM | – | COc1c(C2C(C(=O)Nc3ccnc(S(C)(=N)=O)c3)OC(C)(C(F)(F)F)C2C)ccc(F)c1F (single isomer, unassigned) [Compound 55, 3-(3,4-difluoro-2-methoxy-phenyl)-4,5-dimethyl-N-[2-(methylsulfonimidoyl)-4-pyridyl]-5-(trifluoromethyl)tetrahydrofuran-2-carboxamide] |
| 100 to 1000 nM | – | COc1c(C2C(C(=O)Nc3ccnc(S(C)(=N)=O)c3)OC(C)(C(F)(F)F)C2C)ccc(F)c1F (single isomer, unassigned) [Compound 56, 3-(3,4-difluoro-2-methoxy-phenyl)-4,5-dimethyl-N-[2-(methylsulfonimidoyl)-4-pyridyl]-5-(trifluoromethyl)tetrahydrofuran-2-carboxamide] |
| – | ≥ 1000 nM | C[C@@H]1[C@H](c2ccc(F)c(F)c2OC(F)F)[C@@H](C(=O)Nc2ccc(=O)n(C)c2)O[C@]1(C)C(F)(F)F (single isomer, unassigned) [Compound 67] |
| 10 to 100 nM | – | C[C@H]1[C@@H](c2ccc(F)c(F)c2OC(F)F)[C@H](C(=O)Nc2cc(S(C)(=O)=O)ccn2)O[C@@]1(C)C(F)(F)F (single isomer, unassigned) [Compound 72] |
| ≥ 1000 nM | – | C[C@@H]1[C@H](c2ccc(F)c(F)c2OC(F)F)[C@@H](C(=O)Nc2ccn(C)c(=O)c2)O[C@]1(C)C(F)(F)F (single isomer, unassigned) [Compound 77] |
| 100 to 1000 nM | – | C[C@@H]1[C@H](c2ccc(F)c(F)c2OC(F)F)[C@@H](C(=O)Nc2ccn3nnnc3c2)O[C@]1(C)C(F)(F)F (single isomer, unassigned) [Compound 79] |
| < 10 nM | – | C[C@H]1[C@@H](c2ccc(F)c(F)c2OC(F)F)[C@H](C(=O)Nc2ccn3nnnc3c2)O[C@@]1(C)C(F)(F)F (single isomer, unassigned) [Compound 80] |
| < 10 nM | – | C[C@H]1[C@@H](c2ccc(F)c(F)c2OC(F)F)[C@H](C(=O)Nc2ccnc(C(O)CO)c2)O[C@@]1(C)C(F)(F)F (single isomer, unassigned) [Compound 82] |
| – | ≥ 1000 nM | C[C@@H]1[C@H](c2ccc(F)c(F)c2OC(F)F)[C@@H](C(=O)Nc2ccnc(S(C)(=O)=O)c2)O[C@]1(C)C(F)(F)F (single isomer, unassigned) [Compound 86] |
| – | ≥ 1000 nM | C[C@@H]1[C@H](c2ccc(F)c(F)c2OC(F)F)[C@@H](C(=O)Nc2cc(S(C)(=O)=O)c[n+]([O-])c2)O[C@]1(C)C(F)(F)F (single isomer, unassigned) [Compound 87] |
